{"source": "patent US9145402B2", "about": "“Aminopyrimidine derivatives as LRRK2 modulators” (Genentech, Inc., priority 2011, dated 2015)"}
{"target": "LRRK2 (Homo sapiens (Human), UniProt Q5S007, G2019S)", "sequence (Q5S007 970-2527 G2019S)": "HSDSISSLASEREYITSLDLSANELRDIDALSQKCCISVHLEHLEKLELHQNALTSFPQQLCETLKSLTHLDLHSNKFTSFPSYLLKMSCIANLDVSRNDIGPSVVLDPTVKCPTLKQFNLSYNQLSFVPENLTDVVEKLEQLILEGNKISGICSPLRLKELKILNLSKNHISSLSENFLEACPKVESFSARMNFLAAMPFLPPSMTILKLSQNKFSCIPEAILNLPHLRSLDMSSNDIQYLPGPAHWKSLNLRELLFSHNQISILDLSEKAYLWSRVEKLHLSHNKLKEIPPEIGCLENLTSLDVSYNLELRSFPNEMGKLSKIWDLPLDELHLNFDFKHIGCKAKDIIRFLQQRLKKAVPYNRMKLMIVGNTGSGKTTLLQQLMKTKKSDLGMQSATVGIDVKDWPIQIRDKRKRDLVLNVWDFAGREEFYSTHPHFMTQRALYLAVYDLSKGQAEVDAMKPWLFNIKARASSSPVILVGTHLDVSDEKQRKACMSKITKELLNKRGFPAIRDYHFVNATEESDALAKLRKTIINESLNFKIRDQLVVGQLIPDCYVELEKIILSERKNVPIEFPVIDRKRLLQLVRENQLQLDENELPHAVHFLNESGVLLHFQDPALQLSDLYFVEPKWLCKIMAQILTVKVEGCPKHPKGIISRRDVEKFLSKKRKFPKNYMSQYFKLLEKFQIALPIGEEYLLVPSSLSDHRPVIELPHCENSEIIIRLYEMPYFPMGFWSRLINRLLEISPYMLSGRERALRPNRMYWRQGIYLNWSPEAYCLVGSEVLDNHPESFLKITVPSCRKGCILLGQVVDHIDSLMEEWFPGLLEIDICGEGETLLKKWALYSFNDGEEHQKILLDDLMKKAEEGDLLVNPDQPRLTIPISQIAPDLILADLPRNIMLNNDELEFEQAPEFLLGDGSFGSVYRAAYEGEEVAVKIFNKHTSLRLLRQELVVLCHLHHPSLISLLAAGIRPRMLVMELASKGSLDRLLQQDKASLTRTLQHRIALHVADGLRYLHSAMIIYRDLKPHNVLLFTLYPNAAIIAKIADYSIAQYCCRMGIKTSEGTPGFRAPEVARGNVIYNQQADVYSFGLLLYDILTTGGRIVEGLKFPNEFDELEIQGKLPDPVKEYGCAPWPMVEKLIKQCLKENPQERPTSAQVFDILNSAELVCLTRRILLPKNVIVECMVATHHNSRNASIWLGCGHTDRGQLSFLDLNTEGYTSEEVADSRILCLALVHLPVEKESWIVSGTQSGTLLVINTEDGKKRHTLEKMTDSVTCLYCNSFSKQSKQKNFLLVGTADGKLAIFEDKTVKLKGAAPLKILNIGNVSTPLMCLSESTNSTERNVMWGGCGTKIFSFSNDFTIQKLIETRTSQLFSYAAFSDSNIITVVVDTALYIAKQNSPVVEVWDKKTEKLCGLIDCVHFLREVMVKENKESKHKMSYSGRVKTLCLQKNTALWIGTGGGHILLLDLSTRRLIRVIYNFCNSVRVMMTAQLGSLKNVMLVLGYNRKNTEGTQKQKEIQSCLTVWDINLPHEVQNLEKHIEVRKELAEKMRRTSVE", "assay": "In Vitro LRRK2 LabChip Assay (LRRK2 Ki)", "type": "biochemical", "experimental": "In Vitro LRRK2 LabChip Assay\nThis assay was used to determine a compound's potency in inhibiting activity of LRRK2 by determining, Kiapp, IC50, or percent inhibition values. In a polypropylene plate, LRRK2, fluorescently-labeled peptide substrate, ATP and test compound were incubated together. Using a LabChip 3000 (Caliper Life Sciences), after the reaction the substrate was separated by capillary electrophoresis into two populations: phosphorylated and unphosphorylated. The relative amounts of each were quantitated by fluorescence intensity. LRRK2 Ki was determined according to the equation: Y=V0*(1−((x+Ki*(1+S/Km)+Et)/(2*Et)−(((x+Ki*(1+S/Km)+Et)^2−(4*Et*x))^0.5)/(2*Et))). Ki values in Table 4 and elsewhere herein are shown in μM.\nAssay conditions and materials used were as follows:\nKinase reaction time: 2 hours\nWild type in 5 mM MgCl2: 80 μM\nSolid Support: Black 50 μL volume polypropylene 384 well plate (MatriCal cat #MP101-1-PP)\nNon-binding plate: 384 well clear V-bottom polypropylene plates (Greiner cat #781280).\nATP: 10 mM ATP (Cell Signaling cat #9804).\nCoating Reagent #3: Coating Reagent #3 (Caliper).\nComplete Reaction Buffer: H2O/25 mM Tris, pH 8.0/5 mM MgCl2/2 mM DTT/0.01% Triton X-100.\nStop Solution: H2O/100 mM HEPES, pH 7.2/0.015% Brij-35/0.2% Coating Reagent #3/20 mM EDTA.\nSeparation Buffer: H2O/100 mM HEPES, pH 7.2/0.015% Brij-35/0.1% Coating Reagent #3/1:200 Coating Reagent #8/10 mM EDTA/5% DMSO.\nCompound Plate Preparation:\nFor serial dilutions, 34.6 μl DMSO was added to columns 3-24. For the assay controls, 37.5 μl DMSO was added to columns 1 and 2 of rows A and P. a,d and 50 μl 25 μM G-028831 (Staurosporine) was added to columns 1 and 2, row B. For the samples: to start at 100 μM, 37.5 μl DMSO was to columns 1 and 2, then 12.5 μl 10 mM compound; to start at 10 μM, 78 μl DMSO was added to columns 1 & 2, then 2 μl 10 mM compound; and to start at 1 μM, 25 μM compound (2 μl 10 mM cmpd+798 μl DMSO) was added to empty columns 1 and 2. A Precision instrument was used to perform 1:3.16 serial dilutions (“PLK_BM_serial_halflog”).\nATP was diluted to 282.1 μM in Complete Kinase Buffer (final concentration was 130 μM).\nTotal and Blank Preparation:\nIn Complete Reaction Buffer, substrate was diluted to 4 μM. Equal volumes of Complete Reaction Buffer and 4 μM substrate were combined to obtain the blank. Equal volumes of Complete Reaction Buffer and 4 μM substrate were combined and to the combined solution was added 2× final LRRK2 concentration.\nTo a 50 μl polypropylene plate, 5 μl/well buffer/substrate was added by hand to Blank wells. A Biomek FX was used to start the kinase reaction (“PLK SAR 23 ATP”). The following were added to the appropriate wells:\n5 μl/well compound/ATP in Assay Plate;\n5 μl/well kinase/substrate in Assay Plate;\nThe plate was incubated for 2 hours in the dark. Biomek FX was used to stop the kinase reaction (“PLK Stop”), and 10 μl/well Stop solution was added to the Assay Plate. Results were read on the LabChip 3000.\nThe LabChip 3000 was run using the job “LRRK2 IC50” with the following job settings:\nDownstream voltage: −500 V\nUpstream voltage: −2350 V\nPost sample buffer sip time: 75 seconds\nPost dye buffer sip time: 75 seconds\nFinal delay time: 200 seconds", "units": {"Ki": "nM"}}
{"compound": "CNc1nc(Nc2cc(F)c(N3CCCCC3=O)cc2OC)ncc1C(F)(F)F", "note": "[Example 32, 1-(2-fluoro-5-methoxy-4-(4-(methylamino)-5-(trifluoromethyl)pyrimidin-2-ylamino)phenyl)piperidin-2-one]", "Ki": 5.5}
{"compound": "CNc1nc(Nc2cc(F)c(C3COC3)cc2OC)ncc1C(F)(F)F", "note": "[Example 33, N2-(5-fluoro-2-methoxy-4-(oxetan-3-yl)phenyl)-N4-methyl-5-(trifluoromethyl)pyrimidine-2,4-diamine]", "Ki": 3}
{"compound": "CNc1nc(Nc2ccc(C(F)(F)F)cc2OC)ncc1C(F)(F)F", "note": "[Example 27, N2-(2-methoxy-4-(trifluoromethyl)phenyl)-N4-methyl-5-(trifluoromethyl)pyrimidine-2,4-diamine]", "Ki": 23}
{"compound": "CNc1nc(Nc2cc(Cl)c(S(C)(=O)=O)cc2OC)ncc1C(F)(F)F", "note": "[Example 20, N2-(5-Chloro-4-methanesulfonyl-2-methoxy-phenyl)-N4-methyl-5-trifluoromethyl-pyrimidine-2,4-diamine]", "Ki": 1}
{"compound": "CNc1nc(Nc2cc(C)c(S(C)(=O)=O)cc2OC)ncc1C(F)(F)F", "note": "[Example 23, N2-(4-Methanesulfonyl-2-methoxy-5-methyl-phenyl)-N4-methyl-5-trifluoromethyl-pyrimidine-2,4-diamine]", "Ki": 0.3}
{"compound": "COc1nc(Nc2ccc(S(C)(=O)=O)cc2Cl)ncc1Cl", "note": "[Example 6, (2-Chloro-4-methanesulfonyl-phenyl)-(5-chloro-4-methoxy-pyrimidin-2-yl)-amine]", "Ki": 61}
{"compound": "CCNc1nc(Nc2cc(C)c(S(C)(=O)=O)cc2OC)ncc1C(F)(F)F", "note": "[Example 34, N4-ethyl-N2-(2-methoxy-5-methyl-4-(methylsulfonyl)phenyl)-5-(trifluoromethyl)pyrimidine-2,4-diamine]", "Ki": 3}
{"compound": "CNc1nc(Nc2ccc(S(=O)(=O)N3CCOCC3)cc2OC)ncc1C(F)(F)F", "note": "[Example 26, N2-(2-methoxy-4-(morpholinosulfonyl)phenyl)-N4-methyl-5-(trifluoromethyl)pyrimidine-2,4-diamine]", "Ki": 47}
{"compound": "CNc1nc(Nc2cc(C)c(C#N)cc2Cl)ncc1C(F)(F)F", "note": "[Example 10, 5-Chloro-2-methyl-4-(4-methylamino-5-trifluoromethyl-pyrimidin-2-ylamino)-benzonitrile]", "Ki": 46}
{"compound": "CNc1nc(Nc2ccc(S(C)(=O)=O)cc2Cl)ncc1Cl", "note": "[Example 8, 5-Chloro-N2-(2-chloro-4-methanesulfonyl-phenyl)-N4-methyl-pyrimidine-2,4-diamine]", "Ki": 8}
{"compound": "CNc1nc(Nc2cc(F)c(S(C)(=O)=O)cc2OC)ncc1C(F)(F)F", "note": "[Example 15, N2-(5-Fluoro-4-methanesulfonyl-2-methoxy-phenyl)-N4-methyl-5-trifluoromethyl-pyrimidine-2,4-diamine]", "Ki": 3}
{"compound": "CNc1nc(Nc2cc(F)c(CN3CCOCC3)cc2OC)ncc1C(F)(F)F", "note": "[Example 37, N2-(5-fluoro-2-methoxy-4-(morpholinomethyl)phenyl)-N4-methyl-5-(trifluoromethyl)pyrimidine-2,4-diamine]", "Ki": 56}
{"compound": "CNc1nc(Nc2ccc(C#N)cc2OC)ncc1C(F)(F)F", "note": "[Example 4, 3-Methoxy-4-(4-(methylamino)-5-(trifluoromethyl)pyrimidin-2-ylamino)benzonitrile]", "Ki": 8}
{"compound": "CNc1nc(Nc2cc(F)c(CN3CCOCC3)cc2OCCF)ncc1C(F)(F)F", "note": "[Example 21, N2-[5-Fluoro-2-(2-fluoro-ethoxy)-4-morpholin-4-ylmethyl-phenyl]-N4-methyl-5-trifluoromethyl-pyrimidine-2,4-diamine]", "Ki": 4}
{"compound": "CNc1nc(Nc2ccc(CN3CCOCC3)cc2OC)ncc1C(F)(F)F", "note": "[Example 9, N2-(2-Methoxy-4-morpholin-4-ylmethyl-phenyl)-N4-methyl-5-trifluoromethyl-pyrimidine-2,4-diamine]", "Ki": 3}
{"compound": "CCNc1nc(Nc2ccc(S(C)(=O)=O)c3c2OCCO3)ncc1C(F)(F)F", "note": "[Example 38, N4-ethyl-N2-(8-(methylsulfonyl)-2,3-dihydrobenzo[b][1,4]dioxin-5-yl)-5-(trifluoromethyl)pyrimidine-2,4-diamine]", "Ki": 3}
{"compound": "CNc1nc(Nc2ccc(S(C)(=O)=O)cc2OC)ncc1C(F)(F)F", "note": "[Example 1, N2-(2-Methoxy-4-(methylsulfonyl)phenyl)-N4-methyl-5-(trifluoromethyl)pyrimidine-2,4-diamine]", "Ki": 2}
{"compound": "CNc1nc(Nc2ccc(S(C)(=O)=O)cc2Cl)ncc1C(F)(F)F", "note": "[Example 7, N2-(2-Chloro-4-methanesulfonyl-phenyl)-N4-methyl-5-trifluoromethyl-pyrimidine-2,4-diamine]", "Ki": 8}
{"compound": "CNc1nc(Nc2cc(C)c(C#N)cc2OC)ncc1C(F)(F)F", "note": "[Example 13, 5-Methoxy-2-methyl-4-(4-methylamino-5-trifluoromethyl-pyrimidin-2-ylamino)-benzonitrile]", "Ki": 12}
{"compound": "COc1nc(Nc2ccc(S(C)(=O)=O)cc2OCCF)ncc1Cl", "note": "[Example 18, (5-Chloro-4-methoxy-pyrimidin-2-yl)-[2-(2-fluoro-ethoxy)-4-methanesulfonyl-phenyl]-amine]", "Ki": 12}
{"compound": "CCS(=O)(=O)c1cc(OC)c(Nc2ncc(C(F)(F)F)c(NC)n2)cc1C", "note": "[Example 35, N2-(4-(ethylsulfonyl)-2-methoxy-5-methylphenyl)-N4-methyl-5-(trifluoromethyl)pyrimidine-2,4-diamine]", "Ki": 3}
{"compound": "CNc1nc(Nc2cc(F)c(N3CCOCC3=O)cc2OC)ncc1C(F)(F)F", "note": "[Example 31, 4-(2-fluoro-5-methoxy-4-(4-(methylamino)-5-(trifluoromethyl)pyrimidin-2-ylamino)phenyl)morpholin-3-one]", "Ki": 3}
{"compound": "CNc1nc(Nc2cc(F)c(CN3CCOCC3)cc2OC)ncc1C#N", "note": "[Example 11, 2-(5-Fluoro-2-methoxy-4-morpholin-4-ylmethyl-phenylamino)-4-methylamino-pyrimidine-5-carbonitrile]", "Ki": 27}
{"compound": "CNc1nc(Nc2cc(C)c(S(C)(=O)=O)cc2OC)ncc1C(F)(F)F", "note": "[Example 36, N2-(2-methoxy-5-methyl-4-(methylsulfonyl)phenyl)-N4-methyl-5-(trifluoromethyl)pyrimidine-2,4-diamine]", "Ki": 3}
{"compound": "CCNc1nc(Nc2cc(F)c(CN3CCOCC3)cc2OCCF)ncc1C(F)(F)F", "note": "[Example 22, N4-Ethyl-N2-[5-fluoro-2-(2-fluoro-ethoxy)-4-morpholin-4-ylmethyl-phenyl]-5-trifluoromethyl-pyrimidine-2,4-diamine]", "Ki": 2}
{"compound": "CNc1nc(Nc2cc(F)c(N3CCCC3=O)cc2OC)ncc1C(F)(F)F", "note": "[Example 30, 1-(2-fluoro-5-methoxy-4-(4-(methylamino)-5-(trifluoromethyl)pyrimidin-2-ylamino)phenyl)pyrrolidin-2-one]", "Ki": 3}
{"compound": "CNc1nc(Nc2ccc(N3CCOCC3)cc2OC)ncc1Cl", "note": "[Example 24, 5-chloro-N2-(2-methoxy-4-morpholinophenyl)-N4-methylpyrimidine-2,4-diamine]", "Ki": 9}
{"compound": "CCNc1nc(Nc2cc(F)c(CN3CCOCC3)cc2OC)ncc1C#N", "note": "[Example 12, 4-Ethylamino-2-(5-fluoro-2-methoxy-4-morpholin-4-ylmethyl-phenylamino)-pyrimidine-5-carbonitrile]", "Ki": 14}
{"compound": "CNc1nc(Nc2ccc(S(C)(=O)=O)cc2OCCF)ncc1C(F)(F)F", "note": "[Example 19, N2-[2-(2-Fluoro-ethoxy)-4-methanesulfonyl-phenyl]-N4-methyl-5-trifluoromethyl-pyrimidine-2,4-diamine]", "Ki": 3}
{"compound": "CNc1nc(Nc2ccc(C#N)cc2OC)ncc1Cl", "note": "[Example 5, 4-(5-Chloro-4-(methylamino)pyrimidin-2-ylamino)-3-methoxybenzonitrile]", "Ki": 8}
{"compound": "CNc1nc(Nc2ccc(S(C)(=O)=O)cc2OC)ncc1Cl", "note": "[Example 2, 5-Chloro-N2-(2-methoxy-4-(methylsulfonyl)phenyl)-N4-methylpyrimidine-2,4-diamine]", "Ki": 2}
